Laboratory results taken from article PMC8096243 (Nucleic Acids Research, 2021).
Each block holds one molecule with its values, some of them ahead of it.

Assays:
Assay type in all cases: binding
EcCdnD [1] = biological target: T1, EcCdnD (Enterobacter hormaechei, UniProt P0DSP4); assay: ITC, single site
T1 sequence (P0DSP4 1-381): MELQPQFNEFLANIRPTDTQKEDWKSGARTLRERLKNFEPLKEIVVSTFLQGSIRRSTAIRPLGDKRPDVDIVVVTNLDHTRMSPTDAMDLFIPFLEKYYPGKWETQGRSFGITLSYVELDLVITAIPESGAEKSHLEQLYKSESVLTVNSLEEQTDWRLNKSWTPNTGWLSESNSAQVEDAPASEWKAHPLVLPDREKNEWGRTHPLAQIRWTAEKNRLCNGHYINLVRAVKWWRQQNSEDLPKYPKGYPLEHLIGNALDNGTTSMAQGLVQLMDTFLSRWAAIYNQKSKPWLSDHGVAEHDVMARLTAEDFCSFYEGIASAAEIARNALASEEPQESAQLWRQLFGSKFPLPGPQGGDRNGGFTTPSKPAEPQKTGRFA

EcCdnD [2] = biological target: T1, EcCdnD; assay: crystal structure
EcCdnD [3] = biological target: T1, EcCdnD; assay: crystal structure; remark: listed apart in the source

- Kd (EcCdnD [1]): 29.7 ± 2.2 µM
Structure (SMILES): Nc1nc2c(ncn2[C@@H]2O[C@H](COP(=O)(O)O[C@H]3[C@@H](O)[C@H](n4cnc5c(N)ncnc54)O[C@@H]3COP(=O)(O)OP(=O)(O)OP(=O)(O)O)[C@@H](O)[C@H]2O)c(=O)[nH]1 [5′-pppApG-3′]

Structure (SMILES): Nc1ncnc2c1ncn2[C@@H]1O[C@H](COP(=O)(O)OP(=O)(O)O)[C@@H](O)[C@H]1O [ADP]
- crystal structure (1.87 Å), together with donor ATP (EcCdnD [2]): The diphosphate group makes seven hydrogen bonds with Arg109, Arg197 and Arg307

Structure (SMILES): Nc1ncnc2c1ncn2[C@H]1CC[C@@H](CO[P@@](=O)(O)O[P@](=O)(O)OP(=O)(O)O)O1 [ddATP]
- crystal structure (2.09 Å) (EcCdnD [3]): the ddATP occupied the binding site for the donor substrate
